These results are taken from ChEMBL document CHEMBL1133736, “Modeling cyclooxygenase inhibition. Implication of active site hydration on the selectivity of ketoprofen analogues” (J Med Chem, 2000).

Assay [1] deals with T1, Prostaglandin G/H synthase 2 (Homo sapiens, UniProt P35354).
T1 sequence (P35354 whole entry): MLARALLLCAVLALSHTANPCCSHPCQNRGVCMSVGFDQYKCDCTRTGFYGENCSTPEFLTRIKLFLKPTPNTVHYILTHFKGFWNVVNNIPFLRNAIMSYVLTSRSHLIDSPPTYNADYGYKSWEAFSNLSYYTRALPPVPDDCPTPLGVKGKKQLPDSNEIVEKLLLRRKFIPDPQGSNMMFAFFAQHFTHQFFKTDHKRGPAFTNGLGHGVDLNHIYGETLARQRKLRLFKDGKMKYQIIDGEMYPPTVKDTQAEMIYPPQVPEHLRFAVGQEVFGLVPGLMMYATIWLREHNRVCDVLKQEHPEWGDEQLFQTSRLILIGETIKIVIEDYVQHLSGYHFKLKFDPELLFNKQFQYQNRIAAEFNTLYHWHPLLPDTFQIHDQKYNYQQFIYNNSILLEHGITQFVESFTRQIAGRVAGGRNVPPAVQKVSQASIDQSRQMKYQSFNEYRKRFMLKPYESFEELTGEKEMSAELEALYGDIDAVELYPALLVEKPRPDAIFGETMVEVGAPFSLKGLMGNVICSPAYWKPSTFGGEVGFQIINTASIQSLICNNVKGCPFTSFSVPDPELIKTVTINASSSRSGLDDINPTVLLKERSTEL
Description: Concentration required for 50% inhibition against Prostaglandin G/H synthase 2 from human.

Assay [2] addresses Prostaglandin G/H synthase 1 (Homo sapiens, UniProt P23219). Description: Concentration required for 50% inhibition against Prostaglandin G/H synthase 1 from human.

Chain of Prostaglandin G/H synthase 1 (P23219 whole entry): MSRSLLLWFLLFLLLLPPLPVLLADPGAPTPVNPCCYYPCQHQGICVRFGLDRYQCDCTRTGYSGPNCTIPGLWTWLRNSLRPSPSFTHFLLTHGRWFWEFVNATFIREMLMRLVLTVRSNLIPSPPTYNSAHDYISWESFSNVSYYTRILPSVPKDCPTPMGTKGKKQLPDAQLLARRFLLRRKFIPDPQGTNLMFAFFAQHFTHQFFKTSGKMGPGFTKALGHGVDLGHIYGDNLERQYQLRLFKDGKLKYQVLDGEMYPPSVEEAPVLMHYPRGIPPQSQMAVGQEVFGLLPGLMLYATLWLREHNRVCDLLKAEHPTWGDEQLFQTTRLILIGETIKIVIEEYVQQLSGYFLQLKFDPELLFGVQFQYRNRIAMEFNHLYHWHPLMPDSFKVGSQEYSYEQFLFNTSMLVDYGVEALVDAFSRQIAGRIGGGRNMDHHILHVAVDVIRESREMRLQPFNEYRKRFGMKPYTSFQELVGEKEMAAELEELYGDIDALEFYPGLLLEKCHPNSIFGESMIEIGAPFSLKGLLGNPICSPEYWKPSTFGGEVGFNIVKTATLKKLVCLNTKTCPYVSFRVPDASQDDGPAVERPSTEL

In general, IC50 refers to the concentration needed to halve the response being measured. A lower IC50 goes with higher potency. With `CC(C(=O)O)c1cc(C(=O)c2ccccc2)ccc1O` (stereo not drawn), the half-inhibitory concentration (IC50) stood at 300 nM in assay [1] and 51 nM in assay [2]. For the compound `COc1ccc(C(=O)c2ccccc2)cc1C(C)C(=O)O` (stereo not drawn), half-maximal inhibition in assay [2] (IC50) required 42 nM.
